Results from US7091351B2, “Vanadium compounds for treating cancer” (Parker Hughes Institute, priority 1998, dated 2006).

Assays:
Format in all cases: cell-based, human
[1] = system: BT-20 breast cancer cells; test: Immunofluorescence (anti-α-tubulin / toto-3) morphology, BT-20; conditions: 25 μM, 48-72 hr
Method: In some experiments, immunofluorescence was used to examine the morphologic features of vanadocene-treated cancer cells. At the end of the indicated treatment period, cells were washed twice with PBS and fixed in 2% paraformaldehyde. The cells were permeabilized and non-specific binding sites were blocked with 2.5% BSA in PBS containing 0.1% Triton X-100 for 30 min. Tubulin expression was examined by immunofluorescence using a monoclonal antibody against α-tubulin (Sigma Chemical Co, St. Louis, Mo.) at a dilution of 1:1000 and an anti-mouse IgG conjugated to FITC. Cells were washed in PBS and counterstained with toto-3 (Molecular Probes Inc., Eugene, Oreg.) for 10 min at a dilution of 1:1000. Cells were washed again with PBS and the coverslips were mounted with Vectashield (Vector Labs, Burlingame, Calif.) and viewed with a confocal microscope (Bio-Rad MRC 1024) mounted in a Nikon Labhophot upright microscope. Digital images were saved on a Jaz disk and processed with Adobe Photoshop software (Adobe Systems, Mountain View, Calif.).

[2] = system: 64cp5 testicular cancer cells; test: Cytotoxic activity of oxovanadium(IV) compounds, 64cp5; conditions: read-out: Cytotoxic Activity 64cp5
Method: (§1) The cytotoxicity of oxovanadium (W) complexes listed in Table 6 were tested against 9 different human cancer cell lines was performed using the MTT (3-[4,5-dimethylthiazol-2-yl]-2,5-diphenyl tetrazolium bromide) assay (Boehringer Mannheim Corp., Indianapolis, Ind.) as described previously (20). Briefly, exponentially growing tumor cells were seeded into a 96-well plate at a density of 4×10^4cells/well and incubated with medium containing the oxovanadium(IV) compounds concentrations ranging from 0.1 to 250 μM for 48 hours at 37° C. in a humidified 5% CO2 atmosphere. Triplicate wells were used for each treatment. To each well, 10 μl of MTT (0.5 mg/ml final concentration) was added and the plates were incubated at 37° C. for 4 hours to allow MTT to form formazan crystals by reacting with metabolically active cells . The formazan crystals were solubilized overnight at 37° C. in a solution containing 10% SDS in 0.01 M HCl. The absorbence of each well was measured in a microplate reader (Labsystems) at 540 nm and a reference wavelength of 690 nm. To translate the OD540 values into the number of live cells in each well, the OD540 values were compared to those on standard OD540—versus—cell number curves generated for each cell line. The percent survival was calculated using the formula: % survival=Live cell number[test]/Live cell number [control]×100. The IC50 values were calculated by non-linear regression analysis using an Graphpad Prism software version 2.0 (Graphpad Software, Inc., San Diego, Calif.).

[3] = system: ARH77 multiple myeloma cells; test: MTT cytotoxicity assay of oxovanadium(IV) compounds, ARH77; conditions: 48 hr
Method: as §1, with “Briefly, exponentially growing tumor cells were seeded into a 96-well plate at a density of 4×10^4cells/well and incubated with medium containing the oxovanadium(IV) compounds concentrations ranging from 0.1 to 250 μM for 48 hours at 37° C. in a humidified 5% CO2 atmosphere.” left out

[4] = system: 833-K testicular cancer cells; test: Cytotoxic activity of oxovanadium(IV) compounds, 833-K; conditions: read-out: Cytotoxic Activity 833-K
Method: as §1

[5] = system: HS445 Hodgkin's lymphoma cells; test: MTT cytotoxicity assay of oxovanadium(IV) compounds, HS445; conditions: 48 hr
Method: as §1

NALM-6 cells [6] = test: MTT cytotoxicity assay of oxovanadium(IV) compounds, NALM-6; conditions: 48 hr
Method: as §1

NALM-6 cells [7] = test: Mitochondrial mass determination, NAO staining; conditions: 0.1-1 μM, 24-96 hr
Method: Relative mitochondrial mass was measured by using Becton Dickinson Calibur flow cytometry and the fluorescent stain 10-n-nonyl-acridine orange (NAO), which binds the mitochondrial phospholipid cardiolipin, that has been extensively used to provide an index of mitochondrial mass (28). 1×10^6 compound 29-treated NALM-6 cells at concentrations of 0.1 μM to 1 μM for 24 hr, 48 hr, 72 hr, or 96 hr were incubated with 30 μM of NAO in complete medium for 10 min at room temp in the dark, washed with ice-cold PBS and analyzed using log scale photomultiplier to detect the green fluorescence at 527 nm. Relative change in the mitochondrial mass was measured using the mean fluorescence value of mitochondria of compound 29-treated and vehicle-treated cells.

[8] = system: PC3 prostate cancer cells; test: Cytotoxic activity of oxovanadium(IV) compounds, PC3; conditions: read-out: Cytotoxic Activity PC3
Method: as §1

[9] = system: Tera-2 testicular cancer cells; test: Cytotoxic activity of oxovanadium(IV) compounds, TERA-2; conditions: read-out: Cytotoxic Activity TERA-2
Method: as §1

Molecule	morphological features of BT-20 cells [1]	IC50 [2] [nM]	IC50 [3] [nM]	IC50 [4] [nM]	IC50 [5] [nM]	IC50 (NALM-6 cells [6]) [nM]	mitochondrial mass (NAO staining intensity, treated versus untreated) (NALM-6 cells [7])	IC50 [8] [nM]	IC50 [9] [nM]
[Cl-].[Cl-].[V+4].c1cc[cH-]c1.c1cc[cH-]c1 [VDC, VCp2Cl2]	complete disruption of microtubules	–	–	–	–	–	–	–	–
bis(4,7-dimethyl-1,10-phenanthroline)sulfatooxovanadium(IV) [Compound 29]	–	750	810 ± 900	850	500 ± 80	200 ± 30	virtually identical staining intensity of NAO	1700	19500
